Consider three compounds from ChEMBL document CHEMBL5143714, “Discovery of BMS-986339, a Pharmacologically Differentiated Farnesoid X Receptor Agonist for the Treatment of Nonalcoholic Steatohepatitis” (J Med Chem, 2022).

The structures appear in SMILES notation.

Data set [1] concerns the target T1, Bile acid receptor (Mus musculus, UniProt Q60641).
T1 sequence (Q60641 whole entry): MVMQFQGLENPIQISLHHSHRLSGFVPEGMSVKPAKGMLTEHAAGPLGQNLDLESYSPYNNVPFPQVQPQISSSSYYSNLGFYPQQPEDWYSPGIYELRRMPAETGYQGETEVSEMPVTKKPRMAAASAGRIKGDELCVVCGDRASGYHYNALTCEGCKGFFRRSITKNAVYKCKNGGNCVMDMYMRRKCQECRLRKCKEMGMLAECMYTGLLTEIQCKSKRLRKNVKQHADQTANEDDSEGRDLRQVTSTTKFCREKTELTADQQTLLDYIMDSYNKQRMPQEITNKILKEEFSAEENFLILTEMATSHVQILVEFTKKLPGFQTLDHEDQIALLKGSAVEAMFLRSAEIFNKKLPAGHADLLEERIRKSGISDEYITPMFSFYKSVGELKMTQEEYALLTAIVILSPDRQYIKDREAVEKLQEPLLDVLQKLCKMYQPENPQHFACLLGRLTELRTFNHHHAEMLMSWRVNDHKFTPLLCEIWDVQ
Briefly: Agonist activity at mouse LBD fused FXR in HEK293 cells incubated for 30 min by envision plate reader method. The class given is cell-based.

Data set [2] can be described thus: Metabolic stability in mouse liver microsome assessed as parent compound remaining at 1 mg/mL measured after 10 mins. The class given is ADME. As to conditions: liver microsomes, read-out: Stability.
A short description of data set [3]: Metabolic stability in rat liver microsome assessed as parent compound remaining at 1 mg/mL measured after 10 mins. The conditions noted are these: liver microsomes, read-out: Stability. It is filed as ADME. A general note: Microsomes from liver hold many membrane-bound enzymes, among them those of drug oxidation.
A short description of data set [4]: Metabolic stability in human liver microsome assessed as parent compound remaining at 1 mg/mL measured after 10 mins. The conditions noted are these: liver microsomes, read-out: Stability. The class given is ADME.
Data set [5] deals with T2, Bile acid receptor (Homo sapiens, UniProt Q96RI1).
T2 sequence (Q96RI1 whole entry): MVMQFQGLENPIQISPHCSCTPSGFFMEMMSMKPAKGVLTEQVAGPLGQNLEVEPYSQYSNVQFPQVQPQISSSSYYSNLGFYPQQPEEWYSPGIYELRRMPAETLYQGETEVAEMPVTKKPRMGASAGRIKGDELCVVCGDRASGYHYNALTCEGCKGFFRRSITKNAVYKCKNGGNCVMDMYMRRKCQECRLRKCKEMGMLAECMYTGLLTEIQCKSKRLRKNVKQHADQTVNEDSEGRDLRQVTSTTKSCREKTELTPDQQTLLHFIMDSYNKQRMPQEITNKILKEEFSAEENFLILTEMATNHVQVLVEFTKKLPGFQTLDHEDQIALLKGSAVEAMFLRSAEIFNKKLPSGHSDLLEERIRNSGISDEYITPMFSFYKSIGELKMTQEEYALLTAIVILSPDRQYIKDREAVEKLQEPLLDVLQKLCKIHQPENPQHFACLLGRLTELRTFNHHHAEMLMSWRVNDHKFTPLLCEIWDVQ
Briefly: Agonist activity at Gal4-fused human FXR in HEK293 cells incubated for 15 min by luciferase reporter assay. It is filed as cell-based. A general note: In a reporter assay the amount or activity of a reporter protein is the signal.

For data set [6], the target named is T3, Bile acid receptor (Homo sapiens) (UniProt Q96RI1).
T3 sequence (whole entry): T2 sequence (Q96RI1 whole entry)
Briefly: Agonist activity at LBD-fused human FXR in HEK293 cells incubated for 30 min by envision plate reader method relative to GW2064. It is filed as cell-based.

Data set [7] has as its target T4, Bile acid receptor (Mus musculus) (UniProt Q60641).
T4 sequence (whole entry): T1 sequence (Q60641 whole entry)
Briefly: Agonist activity at LBD-fused mouse FXR in HEK293 cells incubated for 30 min by envision plate reader method relative to GW2064. It is filed as cell-based. As to conditions: filed as agonist.

The subject of data set [8] is Bile acid receptor (Homo sapiens). Briefly: Agonist activity at human FXR expressed in HEK293 cells coexpressing IBABP relative to GW2064. As to conditions: filed as agonist.
Data set [9] has the same test system. Briefly: Agonist activity at human FXR expressed in HEK293 cells coexpressing human FGF19 incubated for 24 hrs by ELISA analysis relative to GW2064. A general note: An ELISA detects its analyte on a solid surface through an enzyme-linked reagent.

For orientation: EC50 means the concentration that produces a half-maximal response. Consider `O=C(O)c1cc(C(F)(F)F)c2cc(N3CCC4(C=C(c5c(-c6c(Cl)cncc6Cl)noc5C5CC5)C4)CC3)ccc2n1`, for which, on Bile acid receptor [1], a half-maximal effect (EC50) was put at 320 nM.

On to `COC(=O)/C=C/c1cccc(N(CC23CCC(c4ccc(OC)cc4)(CC2)CC3)C(=O)C2CCCCC2)c1`, for which the remaining at 10 min in data set [2] was determined as 35%; in data set [4] it was 60%. For the same compound, the remaining at 10 min, 1 mg/mL in [3] is 8%. The same compound showed an EC50 at Bile acid receptor [5] of 142 nM.

As usually defined, the Emax is the maximal effect, on the per cent scale that the assay sets. Regarding `COC(=O)/C=C/c1cccc(N(CC23CCC(c4ccc(N(C)C)cc4)(CC2)CC3)C(=O)C2CCCCC2)c1`, the remaining at 10 min in data set [2] worked out at 77%; in [4] it was 90%. Besides, the remaining at 10 min, 1 mg/mL in data set [3] is 32%. Also, the Emax in data set [6] turned out to be 30%; in data set [7], 279%; in data set [8], 42%; in data set [9] it was 24%. The compound further displayed an EC50 at Bile acid receptor [5] of 66 nM.
